Data: paper PMC5970127, “In vivo evaluation of two tissue transglutaminase PET tracers in an orthotopic tumour xenograft model” (EJNMMI Research, 2018)
Where “and” joins values, the source holds several entries; their conditions need not be identical. Equal values may be shown once. Read-outs that look alike come from different tables or passages of the source.

Key:
TG2 [1] = system: TG2; design: method as in PMID 24152195; conditions: cited from earlier work
TG2 [2] = molecular target: TG2; design: method as in PMID 17149878; conditions: cited from earlier work
[3] = system: MDA-MB-231 tumour sections; design: method as in PMID 27067043, PMID 27837727; conditions: cited from earlier work
[4] = Plasma metabolite analysis after i.v. administration in SCID mice; format: in vivo; conditions: mouse plasma
Procedure: Healthy female SCID mice (20–25 g, Harlan, Horst, The Netherlands) were injected in the tail vein with [^11C]1 or [^18F]2 (20 MBq) under isoflurane anaesthesia (2% in O2 at 1 L · min^−1). Mice were sacrificed at 15 and 45 min post injection (n = 3 for each time-point) by cervical dislocation. Blood (~ 0.5–1 mL) was withdrawn by heart puncture, collected in a heparin-coated tube and centrifuged at 5000 RPM to separate plasma from blood cells. Solid phase extraction (SPE) cartridges (tC18, Waters, Milford, MA, USA) were preconditioned by washing with methanol (MeOH, 6 mL) and H2O (two times 6 mL). Plasma (~ 0.2 mL) was mixed with 0.15 M HCl (0.2 mL) and loaded on the tC18 cartridge. The polar fraction was obtained by elution of the cartridge with H2O (3 mL), the non-polar fraction by subsequent elution with MeOH (1.5 mL) and H2O (0.5 mL). Both fractions were counted for radioactivity in a gamma counter. The percentage of intact tracer in the non-polar fraction was determined by online and offline HPLC analysis (Gemini C18 column (5 μm, 10 mm × 250 mm, Phenomenex, Torrance, CA, USA) with eluent MeCN (A) and 0.1% TFA acid in H2O (B) as eluent according to the following schemes; For [^11C]1: 0 min, 70% B at 0.25 mL · min^−1; 0.5 min, 70% B at 3.5 mL · min^−1; 9.0 min, 10% B at 3.5 mL · min^−1; 12.0 min, 10% B at 3.5 mL · min^−1; 12.5 min, 70% B at 3.5 mL · min^−1; 14.5 min, 70% B at 3.5 mL · min^−1 and 15 min, 70% B at 0.25 mL · min^−1 or for [^18F]2: 0 min, 80% B at 0.25 mL · min^−1; 0.5 min, 80% B at 3 mL · min^−1; 6.0 min, 30% B at 3 mL · min^−1; 12.0 min, 30% B at 3 mL · min^−1; 12.5 min, 80% B at 3.0 mL · min^−1; 14.5 min, 80% B at 3.0 mL · min^−1; 15.0 min, 80% B at 0.25 mL · min^−1 (Rt = 11.5 min). Offline HPLC analysis was performed when the online HPLC analysis yielded a low signal to noise ratio. For offline analysis, HPLC fractions (30 s per fraction) were collected and counted for radioactivity (WIZARD 2480 Compugamma, PerkinElmer, Waltham, MA, USA). The counting results were plotted to generate the corresponding HPLC chromatograms. Data were expressed as percentage of intact tracer, polar metabolites, and non-polar metabolites ± standard deviation.
To healthy SCID mice (n = 2) 10 MBq [^18F]2 diluted with 50 μg (2.5 mg · kg^−1) of unlabelled 2 was administered, corresponding to a molar activity of 0.14 GBq · μmol^−1. At 30 min post injection, animals were sacrificed under isoflurane anaesthesia (2% in O2 at 1 L · min^−1) by cervical dislocation. Blood (~ 1 mL) was collected by heart puncture. Blood plasma was separated using a SPE procedure as described in the “Metabolite analysis” section (vide supra). The non-polar fraction was analysed by HPLC and Liquid chromatography–tandem mass spectrometry (LC-MS/MS) in multiple reaction monitoring (MRM) mode. […]

[5] = cited from earlier work; for Intact (%) / Non-polar (%) / Polar (%): rat plasma
TG2 [6] = system: TG2; design: method as in PMID 27067043, PMID 27837727; conditions: TG2 inhibition; cited from earlier work
MDA-MB-231 tumour = test: Dynamic PET imaging in orthotopic MDA-MB-231 tumour xenograft model; format: in vivo, SCID mice
Procedure: Severe combined immunodeficient (SCID) female mice (6–8 weeks, 20 to 25 g, Charles River, Wilmington, MA, USA) were housed in sterile cages under standard conditions (24 °C, 60% relative humidity, 12-h light/dark cycles) and provided with water and food ad libitum. MDA-MB-231 cells (1 × 10^6) were injected orthotopically in the fat pad of the second thoracic mammary glands (bilateral). Tumour dimensions were measured using a Vernier calliper, and tumour volume was calculated using the formula (x^2 y)/2 (x and y being the width and length, respectively) for an ellipsoid. At 8 weeks after MDA-MB-231 cell injection, tumours reached the target size of 200 mm^3. This study was performed according to national regulations and was approved by the Animal Experimentation Ethics Committee of the VU University Medical Center.
Dynamic PET imaging was performed using dedicated small animal NanoPET/CT and NanoPET/MR scanners (Mediso Ltd., Hungary, Budapest) with identical PET components. Mice (n = 4 per group) were anaesthetized with 4 and 2% isoflurane in 1 L · min^−1 oxygen for induction and maintenance, respectively. Mice were positioned on the scanner bed, and the respiratory rate was monitored for the duration of the scan, adjusting anaesthesia when required. A dynamic PET scan was acquired immediately after intravenous (i.v.) administration (tail vein) of 5 MBq [^11C]1 or [^18F]2. For blocking experiments, mice were injected subcutaneously with ERW1041E (50 mg · kg^−1) dissolved in 20% dimethylsulfoxide in 0.9% saline, 30 min prior to the tracer injection. An additional blocking experiment was performed by co-administration of compound 2 (50 μg, 75 nmol) and [^18F]2, which corresponded with a molar activity of 0.07 GBq · μmol^−1. PET scans were acquired in list mode and rebinned into the following frame sequence: 4 × 5, 4 × 10, 2 × 30, 3 × 60, 2 × 300, 1 × 600, 1 × 900 and 1 × 1200 s. In addition, a static [^18F]2-fluoro-2-deoxy-D-glucose ([^18F]FDG) scan was acquired for 30 min immediately after [^18F]FDG administration (10 MBq, tail vein). At least a 24-h time interval between [^18F]FDG scans and [^11C]1 or [^18F]2 scans was maintained. Reconstruction was performed with a fully 3-dimensional (3D) reconstruction algorithm using four iterations and six subsets, resulting in an isotropic 0.4-mm voxel dimension. Images were analysed using the freely available AMIDE-software version 1.0.4 (retrieved from https://sourceforge.net/projects/amide/files/amide/1.0.4). Regions of interest (ROIs) were drawn around the tumour tissue and leg muscle. Results are expressed as percentage injected dose per gram (%ID/g). Error bars indicate standard deviation. After PET scanning experiments, animals were sacrificed by cervical dislocation, tumours were isolated, and stored at − 80 °C until further use.

activated FXIII = system: activated FXIII; design: method as in PMID 27067043, PMID 27837727; conditions: cited from earlier work
[7] = 15 min after i.v., % of total blood plasma activity ± SD
[8] = animals sacrificed at 60 min post injection (listed under 45 min)

SMILES	Binding to MDA-MB-231 tumour sections (in vitro autoradiography) [3]	Intact (%) [4, 7] [%]	Intact (%) ([4]; 45 min after i.v.)	Intact (%) ([5]; 15 min after i.v.)	Non-polar (%) ([5]; 15 min after i.v.)	Polar (%) ([5]; 15 min after i.v.)	IC50 (TG2 [6]) [nM]	Affinity for activated FXIII (activated FXIII)	other results
O=C(NC[C@@H]1CC(Br)=NO1)[C@@H]1CCCN1C(=O)OCc1cnc2ccccc2c1 [ERW1041E, Quinolin-3-ylmethyl (S)-2-((((S)-3-bromo-4,5-dihydroisoxazol-5-yl)methyl)carbamoyl)pyrrolidine-1-carboxylate]									Inhibition of TG2 activity in mouse model of pulmonary hypertension (TG2 [1]; 50 mg/kg): inhibition of TG2 activity to background levels; Reduction of TG2 activity in pulmonary hypertension model (TG2 [1]; 30 min after administration): factor of four; Time of maximum TG2 inhibitory effect after administration (TG2 [1]): 30 min; Ki (TG2 [2]): 11000 nM
C=C[11C](=O)NCCCC[C@H](NC(=O)Cc1ccccc1)C(=O)N1CCN(c2cccc(C)n2)CC1 [[^11C]1, (S)-N-(6-(4-(6-methylpyridin-2-yl)piperazin-1-yl)-6-oxo-5-(2-phenylacetamido)hexyl)[^11C]acrylamide]	specific and selective binding	56 ± 14	24% and 24 ± 1%	65 ± 7	13 ± 4	21 ± 3	53	no affinity	Intact (%) ([5]; 45 min after i.v.): 29 ± 11%; Non-polar (%) ([5]; 45 min after i.v.): 6 ± 3%; Polar (%) ([5]; 45 min after i.v.): 65 ± 12%; Effect of ERW1041E pretreatment on tumour activity (MDA-MB-231 tumour; ERW1041E 50 mg/kg s.c. 30 min prior to tracer): significant increase in tumour activity; Time of peak tumour uptake after injection (MDA-MB-231 tumour; baseline): 5 to 10 min; Tumour uptake (MDA-MB-231 tumour; baseline, 40–60 min p.i., 5 MBq i.v.): approx. 0.5 %ID/g
COC(=O)[C@H](CC(C)C)NC(=O)[C@@H]1CCCN1C(=O)[C@@H](NC(=O)[C@H](CCC(=O)C=[N+]=[N-])NC(=O)CO/N=C/c1ccc([18F])cc1)C(C)C [[^18F]2, (S)-methyl 2-((S)-1-((7S,10S,E)-7-(4-diazo-3-oxobutyl)-1-(4-[^18F]fluorophenyl)-10-isopropyl-5,8-dioxo-3-oxa-2,6,9-triazaundec-1-en-11-oyl)pyrrolidine-2-carboxamido)-4-methylpentanoate]	specific and selective binding	20 ± 1	3 ± 2%	1 ± 1	98 ± 1	2 ± 0	104	no affinity	Metabolism in vivo ([5]; 15 min post injection): completely metabolised; Intact (%) [5, 8]: 0 ± 0 %; Non-polar (%) [5, 8]: 92 ± 3 %; Polar (%) [5, 8]: 8 ± 3 %; Tumour activity after pretreatment with ERW1041E (MDA-MB-231 tumour; ERW1041E 50 mg/kg s.c. 30 min prior to tracer, 40–60 min, p = 0.06 vs baseline): 1.4 %ID/g; Background (muscle, right femur) activity (MDA-MB-231 tumour; baseline, 40–60 min time-frame): 0.8 %ID/g; Tumour activity with co-administered unlabelled 2 (MDA-MB-231 tumour; self-blocking, 2 (50 μg, 75 nmol) co-administered, 40–60 min, p = 0.007): approximately 1.0 %ID/g
CC(C)C[C@H](NC(=O)[C@@H]1CCCN1C(=O)[C@@H](NC(=O)[C@H](CCC(=O)C=[N+]=[N-])NC(=O)CO/N=C/c1ccc([18F])cc1)C(C)C)C(=O)O [[^18F]M1]							45		
